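Test compounds were applied to cells in 96-well plates for 48 hours at 5 doses. TGI denotes the concentration required for complete inhibition of growth.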 *1 amine or outer side, *2 acyl side, *3 side chain or, on linkers, in order; H or OH if unused. Where a SMILES comes first, the peptide text is derived from it. [ ]: non-standard residue; d: D form. The star is where a group is joined. X31 = CC(=O)N(C)SCC(N[*:1])C(=O)[*:2]; Cbz = O=C(OCc1ccccc1)*; Bn = c1ccc(C*)cc1
Legend:
Experiment in all cases: NCI tumour cell line growth inhibition, 48 h
HOP-18 NSCLC = system: HOP-18 NSCLC
K-562 leukemia = system: K-562 leukemia
SW-620 colon = system: SW-620 colon
TK-10 renal = system: TK-10 renal
DLD-1 colon = system: DLD-1 colon
XF 498 CNS = system: XF 498 CNS
SK-MEL-28 melanoma = system: SK-MEL-28 melanoma
SF-295 CNS = system: SF-295 CNS
SN12C renal = system: SN12C renal
DMS 273 small cell lung = system: DMS 273 small cell lung
786-0 renal = system: 786-0 renal
COLO 205 colon = system: COLO 205 colon
MDA-N = system: MDA-N

SMILES	TGI (HOP-18 NSCLC)	TGI (K-562 leukemia)	TGI (SW-620 colon)	TGI (TK-10 renal)	TGI (DLD-1 colon)	TGI (XF 498 CNS)	TGI (SK-MEL-28 melanoma)	TGI (SF-295 CNS)	TGI (SN12C renal)	TGI (DMS 273 small cell lung)	TGI (786-0 renal)	TGI (COLO 205 colon)	TGI (MDA-N)
OCCN1CCN2C=C(C3CCCC4N(CCO)CCN34)CCC21 (stereo not drawn)	> 100 µM	> 61.5 µM	> 67.9 µM	> 100 µM	> 100 µM	> 100 µM	> 100 µM	> 100 µM	> 100 µM	> 100 µM	> 100 µM	> 100 µM	
CSc1nc2c(ncn2C2OCC(O)C(O)C2O)c(=O)n1C (stereo not drawn)	> 100 µM	> 100 µM	> 100 µM		> 100 µM	> 100 µM	> 100 µM	> 100 µM	> 100 µM	> 100 µM		> 100 µM	
CCN(CC)CCNc1ccc2nnn3c4ccc(O)cc4c(=O)c1c23	42.7 µM	30.6 µM	15.6 µM	18.9 µM	17.5 µM		24.2 µM	17.8 µM	17.8 µM		15.6 µM	16.9 µM	17.5 µM
C=C[C@]1(C)CCC2=C(CCC3C2(C)CCC[C@@]3(C)COC(C)=O)C1 (stereo partly drawn)	70.1 µM	33.5 µM	35.5 µM	59 µM	34.7 µM	34.4 µM	60.4 µM	32.5 µM	31.4 µM		31.8 µM	30 µM	
Cc1c2ccncc2c(C)c2c1[nH]c1ccc(OCC(F)(F)F)cc12		3.91 µM	1.99 µM	3.58 µM	3.32 µM	3.07 µM	3.15 µM	3.01 µM	2.78 µM	2.17 µM	2.9 µM	3.18 µM	
CC(=O)OC1COC(N2C(=O)C(=O)c3cc(Br)ccc32)C(OC(C)=O)C1OC(C)=O (stereo not drawn)	> 100 µM	> 100 µM	> 100 µM	> 100 µM	> 100 µM	> 100 µM	> 100 µM	> 100 µM	> 100 µM	> 100 µM	> 100 µM	> 100 µM	
O=Cc1ccc(CCl)cc1	37.4 µM	> 100 µM	52.1 µM	45.5 µM	31.4 µM	34.6 µM	32.9 µM	32 µM		38.8 µM		> 100 µM	
CCCCCC/C=C1\CCC(CN2CCOCC2)C1=O (stereo not drawn)	20 µM	16.4 µM	26.7 µM	26.4 µM	27.4 µM	29.9 µM	30.7 µM	39.3 µM	33.4 µM	32.5 µM	8.75 µM	32.3 µM	
COc1cc(C2C(Cl)C(=O)N2NC(=O)c2ccc(N)cc2)cc(Br)c1O (stereo not drawn)		48.7 µM	35.1 µM	32.5 µM	40.2 µM	30.7 µM	31.6 µM	27.7 µM	33.4 µM	31.9 µM	26 µM	33.4 µM	
Nc1cc(=O)n(-c2ccccc2)c(=S)n1-c1ccccc1		> 100 µM	> 100 µM	> 100 µM	> 100 µM	> 100 µM		> 100 µM	> 100 µM	> 100 µM	> 100 µM	> 100 µM	
O=C(Nc1cccc2c1[nH]c1c(-c3ccccc3)nccc12)c1ccccc1[N+](=O)[O-]	> 100 µM	> 100 µM	> 100 µM	> 100 µM			> 100 µM	88 µM	> 100 µM	> 100 µM		> 100 µM	
CCN(CC)Cc1c(/C=C\c2cc(OC)c(OC)c(OC)c2)ccc(OC)c1O	> 100 µM	> 100 µM	> 100 µM	> 100 µM	> 100 µM	21.5 µM	> 100 µM	32.1 µM	> 71.7 µM	> 100 µM	78.9 µM	7.36 µM	1.59 µM
COC1(O)c2cccc(Cl)c2C(=O)N1C1(C(N)=O)CCCCC1 (stereo not drawn)	> 100 µM	> 100 µM	> 100 µM		> 100 µM	> 100 µM	> 100 µM	> 100 µM	> 100 µM	> 100 µM		> 100 µM	
CSc1ncc2c(n1)sc1c(=O)n(-c3ccccc3)cnc12		> 100 µM	> 100 µM	> 100 µM			> 100 µM	> 100 µM	> 100 µM		> 100 µM	> 100 µM	> 100 µM
Cc1ccc2nc(C=Nc3ccc(Cl)cc3)cc(C)c2c1		> 39.5 µM	27.2 µM	57 µM			36.4 µM	19.3 µM	29.4 µM		35.3 µM	6.08 µM	25.2 µM
COc1ccc(C(=O)/C=C/c2ccc(OCCSCCCCCCCCCCSCCOc3ccc(/C=C/C(=O)c4ccc(OC)c(OC)c4)cc3)cc2)cc1OC		> 100 µM	> 100 µM	> 100 µM			> 100 µM	> 100 µM	> 100 µM		> 100 µM	> 100 µM	> 100 µM
FC(F)(Sc1ncc[nH]1)c1nc2ccccc2o1		> 100 µM	> 100 µM	> 100 µM			> 100 µM	> 100 µM	> 100 µM		> 100 µM	> 100 µM	> 100 µM
CC1C(OC2O[C@@H]3O[C@@]4(C)CC[C@H]5[C@H](C)CC[C@@H](C2C)[C@@]35O4)O[C@@H]2O[C@@]3(C)CC[C@H]4[C@H](C)CC[C@@H]1[C@@]24O3 (stereo partly drawn)		> 50 µM	> 50 µM	> 50 µM			> 50 µM	> 50 µM	> 50 µM		> 50 µM	> 50 µM	> 50 µM

SMILES	TGI (HOP-18 NSCLC)	TGI (K-562 leukemia)	TGI (SW-620 colon)	TGI (TK-10 renal)	TGI (DLD-1 colon)	TGI (XF 498 CNS)	TGI (SK-MEL-28 melanoma)	TGI (SF-295 CNS)	TGI (SN12C renal)	TGI (DMS 273 small cell lung)	TGI (786-0 renal)	TGI (COLO 205 colon)	TGI (MDA-N)
O=C1C=CC(=O)c2c1ccc1c3ccccc3n(Cc3cccc([N+](=O)[O-])c3)c21		> 59.9 µM	32.4 µM	44.8 µM			> 60.4 µM	> 100 µM	49.1 µM		> 61.4 µM	21.2 µM	26.3 µM
COc1cc2c(cc1OCCCCOc1cc3c(cc1OC)C(=O)N1CCC[C@H]1C(=O)N3)N=C[C@@H]1CCCN1C2=O		6.88 µM	14.6 µM	27.4 µM			30.8 µM	26 µM	21.4 µM		39.2 µM	7.41 µM	19.6 µM
Clc1ccc(-c2c(C3=NCCCN3)nnn2-c2ccccc2)cc1	> 100 µM	> 100 µM	46.7 µM	> 100 µM	> 100 µM	> 100 µM	> 100 µM	> 100 µM	> 100 µM	> 100 µM	> 100 µM	> 100 µM	
COC(=O)C1(C(=O)OC)N=C(C)OC1/C=C/c1ccccc1 (stereo not drawn)		> 100 µM	> 100 µM	> 100 µM			> 100 µM	> 100 µM	> 100 µM		> 100 µM	> 100 µM	> 100 µM
Cc1nnc(N)nc1/C=C/c1c(O)ccc2ccccc12		> 100 µM	> 100 µM	> 100 µM			> 100 µM	56.9 µM	> 100 µM		> 100 µM	> 100 µM	> 100 µM
C[N+](C)(C)CC(=O)N/N=C/c1ccncc1		> 100 µM	> 100 µM	> 100 µM			> 100 µM	> 100 µM	> 100 µM		> 100 µM	> 100 µM	> 100 µM
O=C(O)C12CCCCC1CCCC2 (stereo not drawn)	> 100 µM	> 100 µM	> 100 µM	> 100 µM	> 100 µM	> 100 µM	> 100 µM	> 100 µM	> 100 µM	> 100 µM		> 100 µM	
OCCOc1ccccc2cccc1-2		> 100 µM	> 100 µM	> 100 µM			> 100 µM	> 100 µM	> 100 µM		> 100 µM	> 100 µM	> 100 µM
Ic1cc2c(cc1C1SCCCS1)OCO2	> 100 µM	> 100 µM	> 100 µM	> 100 µM	> 100 µM		> 100 µM	> 100 µM	> 100 µM	> 100 µM	> 100 µM	> 100 µM	
c1ccc2c(c1)NC1(N3CCCCC3)CCCCC21 (stereo not drawn)		> 100 µM	> 100 µM	> 100 µM			> 100 µM	> 100 µM	> 100 µM		> 100 µM	> 100 µM	> 100 µM
COc1cccc(N(CN2C(=O)CCC2C(=O)O)C(C)=O)c1 (stereo not drawn)		> 100 µM	> 100 µM	> 100 µM			> 100 µM	> 100 µM	> 100 µM		> 100 µM	> 100 µM	> 100 µM
CCOc1cc2oc(C)cc(=O)c2c(OC)c1C=Nc1ccc(Cn2c(C)nc3ccccc32)cc1		> 100 µM	> 100 µM	> 100 µM			> 100 µM	> 100 µM	> 100 µM		> 100 µM	> 100 µM	> 100 µM
CN1CN(c2ccccc2)C2(CCN(CCC3COc4ccccc4O3)CC2)C1=O (stereo not drawn)		44.9 µM	> 100 µM	48.2 µM			47.3 µM	37.2 µM	83.9 µM		> 100 µM	34.2 µM	53.1 µM
CC(=O)N(C)SCC(NC(=O)C(Cc1ccccc1)NC(=O)OCc1ccccc1)C(=O)NC(Cc1ccccc1)C(=O)NC(Cc1c[nH]c2ccccc12)C(=O)NC(CCCCNC(=O)OCc1ccccc1)C(=O)NC(C(=O)NC(CSN(C)C(C)=O)C(=O)NC(C(N)=O)C(C)OCc1ccccc1)C(C)OCc1ccccc1 (stereo not drawn) (Cbz-F[X31]FWK(Cbz)T(Bn)[X31]T(Bn)-NH2; configuration not given here)		> 100 µM	> 100 µM	> 100 µM			> 100 µM	> 100 µM	> 100 µM		> 100 µM	> 100 µM	> 100 µM
CCOC(=O)C(NC(=O)c1ccccc1)(Nc1ccc(Cl)cc1C(F)(F)F)C(F)(F)F (stereo not drawn)		> 26.7 µM	17.2 µM	> 100 µM			> 100 µM	> 69.8 µM	> 44.2 µM		> 100 µM	19.2 µM	3.69 µM
COC(=O)[C@H](CC(C)C)Nc1c(O)c2c(c(O)c1Cl)C(=O)C=CC2=O		> 10 µM	> 10 µM	> 10 µM			> 10 µM	> 10 µM	> 10 µM		> 10 µM	> 10 µM	> 10 µM
CC(=O)NC(Cc1ccsc1)C(=O)O (stereo not drawn)	> 100 µM	> 100 µM	> 100 µM		> 100 µM	> 100 µM	> 100 µM	> 100 µM	> 100 µM	> 100 µM		> 100 µM	

— PubChem BioAssay (NCI)
